The subject of this experiment is L1210 leukemia ip in BDF1 mice, survival T/C. The experiment in a line: NCI In Vivo Anticancer Drug Screen. Data for tumor model L1210 Leukemia (intraperitoneal) in B6D2F1 (BDF1) mice. To be noted: endpoint: mean survival time, higher = longer survival. In outline:
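Tumor was transplanted into mice, which were then dosed with test compound or vehicle alone. Survival was recorded for each group, and the treated figure was expressed relative to the control figure.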

The mark [1] stands for this setting: dose: 100.0 mg/kg/injection, schedule: Q04DX003 (ip), vehicle: saline.
Where [2] appears, read: dose: 100.0 mg/kg/injection, schedule: Q01DX009 (ip), vehicle: saline.
Setting [3] is: dose: 200.0 mg/kg/injection, schedule: Q04DX003 (ip), vehicle: saline.
Setting [4] is: dose: 400.0 mg/kg/injection, schedule: Q01DX009 (ip), vehicle: saline.
[5] abbreviates: dose: 400.0 mg/kg/injection, schedule: Q04DX003 (ip), vehicle: saline.
[6] abbreviates: dose: 100.0 mg/kg/injection, schedule: Q01DX001 (ip), vehicle: saline.
Setting [7] is: dose: 200.0 mg/kg/injection, schedule: Q01DX001 (ip), vehicle: saline.
Where [8] appears, read: dose: 400.0 mg/kg/injection, schedule: Q01DX001 (ip), vehicle: saline.

Values joined by “and” are separate entries in the source; they are usually repeats but may differ in a detail not shown here. Equal values may be shown once. Toxic doses and inconclusive results are not listed.

For the compound `C=CCCCCCCCCC`, the T/C reads like this: (dose: 100.0 mg/kg/injection, schedule: Q04DX002 (ip), vehicle: saline with Tween-80) 93 % of control; (dose: 200.0 mg/kg/injection, schedule: Q04DX002 (ip), vehicle: saline with Tween-80) 111 % of control; (dose: 400.0 mg/kg/injection, schedule: Q04DX002 (ip), vehicle: saline with Tween-80) 104 % of control.
Regarding `N#CS/C=C/C(N)=O`, the T/C (dose: 1.0 mg/kg/injection, schedule: Q01DX001 (ip), vehicle: saline) was 101 % of control; the T/C (dose: 2.0 mg/kg/injection, schedule: Q01DX001 (ip), vehicle: saline) was 99 % of control; the T/C (dose: 2.0 mg/kg/injection, schedule: Q01DX009 (ip), vehicle: saline) was 103 % of control; the T/C (dose: 4.0 mg/kg/injection, schedule: Q01DX001 (ip), vehicle: saline) was 95 % of control; the T/C (dose: 4.0 mg/kg/injection, schedule: Q01DX009 (ip), vehicle: saline) was 103 % of control; the T/C (dose: 8.0 mg/kg/injection, schedule: Q01DX001 (ip), vehicle: saline) was 94 % of control. Further, for the setting “dose: 8.0 mg/kg/injection, schedule: Q01DX009 (ip), vehicle: saline”, the T/C was 105 % of control.
As for `CCc1nnnn1C12CC3CC(CC(C3)C1)C2`, the T/C under setting [1] is 102 % of control.
Turning to `CC(=O)Nc1ccn(CC(=O)c2cccs2)c(=O)n1`, the T/C is 96 % of control under setting [2]; 95 % of control under setting [1]; 94 % of control (dose: 200.0 mg/kg/injection, schedule: Q01DX009 (ip), vehicle: saline); 101 % of control under setting [3]; 89 % of control under setting [4]; 110 % of control under setting [5].
On to `CCCc1[nH]nc(C(=O)OC)c1N=NN(C)C`, for which the T/C runs as follows: (dose: 173.0 mg/kg/injection, schedule: Q01DX001 (ip), vehicle: other) 110 % of control; (dose: 266.0 mg/kg/injection, schedule: Q01DX001 (ip), vehicle: other) 112 % of control; (dose: 400.0 mg/kg/injection, schedule: Q01DX001 (ip), vehicle: other) 115 % of control; (dose: 600.0 mg/kg/injection, schedule: Q01DX001 (ip), vehicle: other) 123 % of control.
As to `CC1=C2CC3CCC(C)C2(CC1)C3(C)C` (stereo unspecified), the T/C is, setting by setting: under setting [2], 88 % of control; under setting [4], 87 % of control.
Consider `O=C(Nc1ccc(S(=O)(=O)c2ccc(NC(=O)C(F)(F)N3CCOCC3)cc2)cc1)C(F)(F)N1CCOCC1`, for which the T/C was 103 % of control (dose: 100.0 mg/kg/injection, schedule: Q01DX001 (ip), vehicle: carboxymethylcellulose (CMC)); 97 % of control (dose: 200.0 mg/kg/injection, schedule: Q01DX001 (ip), vehicle: carboxymethylcellulose (CMC)); 103 % of control (dose: 400.0 mg/kg/injection, schedule: Q01DX001 (ip), vehicle: carboxymethylcellulose (CMC)).
Turning to `CNC(=O)OCC1=CC(=O)C(C)=CC1=O`, the T/C reads like this: (dose: 1.56 mg/kg/injection, schedule: Q01DX009 (ip), vehicle: gum acacia) 96 % of control; (dose: 3.12 mg/kg/injection, schedule: Q01DX009 (ip), vehicle: gum acacia) 89 % of control; (dose: 6.25 mg/kg/injection, schedule: Q01DX009 (ip), vehicle: gum acacia) 89 % of control; (dose: 12.5 mg/kg/injection, schedule: Q04DX003 (ip), vehicle: gum acacia) 95 % of control; (dose: 25.0 mg/kg/injection, schedule: Q04DX003 (ip), vehicle: gum acacia) 103 % of control.
In the case of `CC12C(c3ccccc3)=C(c3ccccc3)C(C)(C3C(=O)OC(=O)C31)C1C(=O)OC(=O)C12` (stereo unspecified), the T/C is 88 % of control (dose: 100.0 mg/kg/injection, schedule: Q01DX001 (ip), vehicle: Klucel (hydroxypropylcellulose) (HPC)); 100 % of control (dose: 200.0 mg/kg/injection, schedule: Q01DX001 (ip), vehicle: Klucel (hydroxypropylcellulose) (HPC)); 100 % of control (dose: 400.0 mg/kg/injection, schedule: Q01DX001 (ip), vehicle: Klucel (hydroxypropylcellulose) (HPC)).
On to `FC(F)(F)C(F)(C1=NS1(F)C(F)(C(F)(F)F)C(F)(F)F)C(F)(F)F` (stereo unspecified), for which the T/C reads like this: (dose: 100.0 mg/kg/injection, schedule: Q01DX001 (ip), vehicle: acetone) 101 % of control; (dose: 200.0 mg/kg/injection, schedule: Q01DX001 (ip), vehicle: acetone) 95 % of control; (dose: 400.0 mg/kg/injection, schedule: Q01DX001 (ip), vehicle: acetone) 100 % of control.
In the case of `O=C(NP(=O)(N1CC1)N1CC1)OCc1ccccc1`, the T/C reads like this: (dose: 3.0 mg/kg/injection, schedule: Q01DX Z (ip), vehicle: saline) 118 % of control and 122 % of control; (dose: 3.13 mg/kg/injection, schedule: Q01DX006 (iv), vehicle: clinical formulation) 118 % of control; (dose: 3.13 mg/kg/injection, schedule: Q01DX009 (ip), vehicle: saline) 118 % of control and 120 % of control; (dose: 6.0 mg/kg/injection, schedule: Q01DX Z (ip), vehicle: saline) 104 % of control; (dose: 6.25 mg/kg/injection, schedule: Q01DX006 (iv), vehicle: clinical formulation) 115 % of control; (dose: 6.25 mg/kg/injection, schedule: Q01DX009 (ip), vehicle: saline) 109 % of control and 121 % of control. The T/C is 117 % of control (dose: 10.0 mg/kg/injection, schedule: Q01DX006 (iv), vehicle: saline); 196 % of control (dose: 12.0 mg/kg/injection, schedule: Q01DX Z (ip), vehicle: saline); 93 % of control (dose: 12.5 mg/kg/injection, schedule: Q01DX001 (ip), vehicle: saline); 120 % of control (dose: 12.5 mg/kg/injection, schedule: Q01DX006 (iv), vehicle: clinical formulation); 97 % of control and 114 % of control (dose: 12.5 mg/kg/injection, schedule: Q01DX009 (ip), vehicle: saline); 117 % of control (dose: 20.0 mg/kg/injection, schedule: Q01DX006 (iv), vehicle: saline). Also, the T/C runs as follows: (dose: 25.0 mg/kg/injection, schedule: Q01DX001 (ip), vehicle: saline) 93 % of control; (dose: 25.0 mg/kg/injection, schedule: Q01DX009 (ip), vehicle: saline) 101 % of control and 109 % of control; (dose: 48.0 mg/kg/injection, schedule: Q01DX Z (ip), vehicle: saline) 123 % of control; (dose: 50.0 mg/kg/injection, schedule: Q01DX001 (ip), vehicle: saline) 103 % of control; (dose: 50.0 mg/kg/injection, schedule: Q01DX006 (iv), vehicle: clinical formulation) 153 % of control; (dose: 50.0 mg/kg/injection, schedule: Q01DX009 (ip), vehicle: saline) 124 % of control. The T/C is 100 % of control (dose: 50.0 mg/kg/injection, schedule: Q01DX010 (oral), vehicle: saline); 156 % of control (dose: 80.0 mg/kg/injection, schedule: Q01DX006 (iv), vehicle: saline); 98 % of control under setting [6]; 111 % of control (dose: 100.0 mg/kg/injection, schedule: Q01DX010 (oral), vehicle: saline); 105 % of control (dose: 200.0 mg/kg/injection, schedule: Q01DX010 (oral), vehicle: saline); 106 % of control (dose: 400.0 mg/kg/injection, schedule: Q01DX010 (oral), vehicle: saline).
On to `CC1(C)OC2OC(CO)C(O)C2O1` (stereo unspecified), for which the T/C under setting [6] is 101 % of control, the T/C under setting [7] is 97 % of control and the T/C under setting [8] is 98 % of control.
For `CCN(c1c(C)cc(C)c(N(CC(=O)O)S(=O)(=O)c2ccccc2)c1C)S(=O)(=O)c1ccccc1`, the T/C (dose: 100.0 mg/kg/injection, schedule: Q01DX009 (ip), vehicle: saline with Tween-80) is 101 % of control; the T/C under setting [1] is 94 % of control; the T/C (dose: 200.0 mg/kg/injection, schedule: Q01DX009 (ip), vehicle: saline with Tween-80) is 97 % of control; the T/C under setting [3] is 100 % of control; the T/C (dose: 400.0 mg/kg/injection, schedule: Q01DX009 (ip), vehicle: saline with Tween-80) is 95 % of control; the T/C under setting [5] is 103 % of control.
Take `N/N=C\c1cnnc2ccccc12`: the T/C under setting [6] is 95 % of control, the T/C under setting [7] was 95 % of control and the T/C under setting [8] is 98 % of control.
Consider `NC(=O)NNC(=O)C(Cl)(Cl)Cl`, for which the T/C reads like this: (dose: 25.0 mg/kg/injection, schedule: Q04DX002 (ip), vehicle: saline) 108 % of control; (dose: 50.0 mg/kg/injection, schedule: Q04DX002 (ip), vehicle: saline) 99 % of control; (dose: 100.0 mg/kg/injection, schedule: Q04DX002 (ip), vehicle: saline) 101 % of control.

These data come from PubChem BioAssay AID248 (DTP/NCI, 2004).
